Results from US8722849B2, “Polypeptides” (Novo Nordisk A/S, priority 2011, dated 2014).
In brackets after ≈: the same amount, converted by molar mass. Where two headings read alike, the source gives them in different places. Starred links: 1 amine or outer side, 2 acyl side, 3 side chain; linkers in the order of their positions; H or OH if unused. Positions of bridges follow the written chain, without caps; N, C: chain ends. Residues, ends and D or L forms follow the SMILES beside them. *: point of attachment. C20 diacid = O=C(O)CCCCCCCCCCCCCCCCCCC(=O)*; γGlu = O=C(O)[C@H](CCC(=O)[*:2])N[*:1]

Key:
food intake = assay: Assay (I) efficacy testing on appetite (food intake), ad libitum fed rat model; type: in vivo, Sprague Dawley (SD) rats
In short: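 Sprague Dawley rats (200–250 g), single-housed under reversed light cycle with free food and water, got one ip, po or sc dose of 0.01–3 mg/kg just before lights-off. Individual food intake recorded hourly for 7 h, then at 24 h and sometimes 48 h; groups of 5–8, Grubbs outliers excluded.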

[1] = molecular target: T1, human amylin receptor (amylin 3(a) receptor: human calcitonin receptor + RAMP-3) (Homo sapiens, UniProt O60896+P30988); assay: Assay (II)a functional CRE-luciferase assay, human amylin receptor; type: cell-based
T1 construct: expressed in transfected cells; host or cells: BHK570
T1 sequence (P30988 25-474): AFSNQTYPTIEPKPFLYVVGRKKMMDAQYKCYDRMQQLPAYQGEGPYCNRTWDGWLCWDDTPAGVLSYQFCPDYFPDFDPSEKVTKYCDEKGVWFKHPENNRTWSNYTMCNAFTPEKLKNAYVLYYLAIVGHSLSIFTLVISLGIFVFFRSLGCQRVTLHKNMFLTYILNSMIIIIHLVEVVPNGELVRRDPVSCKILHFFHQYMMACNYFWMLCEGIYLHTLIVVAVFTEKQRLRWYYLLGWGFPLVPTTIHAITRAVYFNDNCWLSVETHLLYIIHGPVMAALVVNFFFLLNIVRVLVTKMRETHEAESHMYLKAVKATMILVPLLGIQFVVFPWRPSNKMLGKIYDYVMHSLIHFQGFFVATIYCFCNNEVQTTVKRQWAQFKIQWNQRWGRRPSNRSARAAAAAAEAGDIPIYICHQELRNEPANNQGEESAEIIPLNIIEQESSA
T1 sequence (O60896 24-148 partner): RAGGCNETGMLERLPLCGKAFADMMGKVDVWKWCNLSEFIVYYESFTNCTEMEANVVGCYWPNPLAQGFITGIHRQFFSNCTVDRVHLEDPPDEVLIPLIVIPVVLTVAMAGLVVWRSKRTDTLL

[2] = molecular target: T2, human calcitonin receptor (Homo sapiens, UniProt P30988); assay: Assay (II)a functional CRE-luciferase assay, human calcitonin receptor; type: cell-based; details: Table 7; human calcitonin (CTa) receptor
T2 construct: expressed in transfected cells; host or cells: BHK570
T2 sequence (P30988 25-474): T1 sequence (P30988 25-474)

[3] = Assay (IV) determination of solubility; type: physicochemical
In short: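 Polypeptide in water (~500 nmol/ml) mixed 1:1 with 100 mM glycylglycine (pH 3.0–5.0) or bistrispropane (pH 6.0–8.0) buffers. Held 18 hours at room temperature, then centrifuged. Polypeptide remaining in solution quantified by HPLC.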

[4] = molecular target: T3, rat amylin 3(a) receptor (rat calcitonin(a) receptor + rat RAMP3) (Rattus norvegicus, UniProt P32214+Q9JJ73); assay: Assay (II)b functional cAMP FlashPlate assay, rat amylin receptor; type: cell-based; details: Table 11
T3 construct: expressed in transfected cells; host or cells: BHK tk'ts 13
T3 sequence (P32214 25-479 isoform P32214-2 limits assumed): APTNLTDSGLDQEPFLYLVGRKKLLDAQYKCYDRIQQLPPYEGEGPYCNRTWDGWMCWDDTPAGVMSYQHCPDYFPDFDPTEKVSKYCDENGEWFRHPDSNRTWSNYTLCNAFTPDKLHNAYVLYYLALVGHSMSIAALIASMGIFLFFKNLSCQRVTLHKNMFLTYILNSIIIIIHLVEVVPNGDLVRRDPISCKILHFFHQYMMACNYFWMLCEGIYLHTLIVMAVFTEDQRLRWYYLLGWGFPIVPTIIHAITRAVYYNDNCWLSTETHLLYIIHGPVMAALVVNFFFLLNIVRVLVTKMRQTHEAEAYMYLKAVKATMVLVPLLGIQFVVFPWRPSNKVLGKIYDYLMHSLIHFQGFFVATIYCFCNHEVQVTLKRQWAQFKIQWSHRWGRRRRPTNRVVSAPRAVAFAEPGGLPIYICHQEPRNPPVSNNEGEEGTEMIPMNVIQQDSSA
T3 sequence (Q9JJ73 23-147 partner): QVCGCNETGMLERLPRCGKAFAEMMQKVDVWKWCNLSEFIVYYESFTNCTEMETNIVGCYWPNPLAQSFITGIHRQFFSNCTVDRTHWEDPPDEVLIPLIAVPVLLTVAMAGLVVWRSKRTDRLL
Text: (§1) Assay (II)b—Rat Calcitonin and Rat Amylin Receptor Assays
(§2) Activation of calcitonin and amylin (coexpression of calcitonin receptor and receptor activity modifying proteins (RAMP)) receptors lead to increased intracellular concentrations of cAMP. In order to quantify the cAMP levels in transiently transfected cells the Adenylyl Cyclase Activation FlashPlate® Assay from […] was used. The basic principle of the FlashPlate® Assay is a competition between radioactive and non-radioactive cAMP generated by the cells for a fixed number of binding sites.
(§3) Construction of rat calcitonin(a)—and rat amylin 3(a)-receptor cells.
(§4) BHK tk'ts 13 cells were transiently transfected with either rat calcitonin (a) receptor or amylin 3 (a) receptor (rat calcitonin(a) receptor+ rat RAMP3) using FuGENE® 6 (ROCHE), according to the manufacturers recommendations.
(§5) 24 hours after transient transfection the cells (rat calcitonin(a)—or rat amylin 3(a)—receptor cells) were added (100.000 cells/well) to the 96 well FlashPlates® with samples or standard in FlashPlate stimulation buffer with IBMX and incubated for 30 min. Detection mix was created according to manufacturers protocol and scintillation measured after 3 h of incubation on TopCounter™ (Packard).

[5] = molecular target: T4, rat calcitonin (a) receptor (Rattus norvegicus, UniProt P32214); assay: Assay (II)b functional cAMP FlashPlate assay, rat calcitonin receptor; type: cell-based; details: Table 11; read-out: CTa receptor rat EC50
T4 construct: expressed in transfected cells; host or cells: BHK tk'ts 13
T4 sequence (P32214 25-479 isoform P32214-2 limits assumed): T3 sequence (P32214 25-479 isoform P32214-2 limits assumed)
Text: as §1, §2, §3, §4, §5

[6] = Assay (III) ThT fibrillation assay for physical stability; type: physicochemical; details: ThT fibrillation assay
In short: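 Freshly prepared formulations, pH-adjusted, with 1 μM ThT; four or eight replicates incubated at 37 °C under 960 rpm orbital shaking. Fluorescence (ex 444/em 485 nm) read every 20 min; […]. Peptide concentration measured by RP-HPLC before and after the run.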

| Compound | Food intake reduction 0-24 h 3 nmol/kg (%) (food intake; 0-24 h, 3 nmol/kg) | Food intake reduction 24-48 h 3 nmol/kg (%) (food intake; 24-48 h, 3 nmol/kg) | EC50 ([1]; Table 2, BHK amylin 3(a)-receptor/CRE-luc cells) [nM] | EC50 [2] [nM] | solubility at 18 h ([3]; bistrispropane buffer, pH 6, pH 6.0, read-out: Solubility pH 6.0) [µM] | solubility at 18 h ([3]; bistrispropane buffer, pH 6.5, pH 6.5, read-out: Solubility pH 6.5) [µM] | solubility at 18 h ([3]; bistrispropane buffer, pH 7, pH 7.0, 18 hours at room temperature, Table 3, read-out: Solubility pH 7.0) [µM] | solubility at 18 h ([3]; bistrispropane buffer, pH 7, pH 7.0, read-out: Solubility pH 7.0) [µM] | solubility at 18 h ([3]; bistrispropane buffer, pH 7.5, pH 7.5, read-out: Solubility pH 7.5) [µM] | solubility at 18 h ([3]; bistrispropane buffer, pH 8, pH 8.0, read-out: Solubility pH 8.0) [µM] | solubility at 18 h ([3]; glycylglycine buffer, pH 3, pH 3.0, read-out: Solubility pH 3.0) [µM] | solubility at 18 h ([3]; glycylglycine buffer, pH 4, pH 4.0, 18 hours at room temperature, Table 2, read-out: Solubility pH 4.0) [µM] | solubility at 18 h ([3]; glycylglycine buffer, pH 4, pH 4.0, read-out: Solubility pH 4.0) [µM] | solubility at 18 h ([3]; glycylglycine buffer, pH 5, pH 5.0, read-out: Solubility pH 5.0) [µM] | EC50 ([1]; Table 6, human amylin receptor) [nM] | EC50 [4] [nM] | EC50 [5] [nM] | Food intake reduction 0-24 h 30 nmol/kg (%) (food intake; 0-24 h, 30 nmol/kg) | Food intake reduction 24-48 h 30 nmol/kg (%) (food intake; 24-48 h, 30 nmol/kg) | ThT pH 4.0 lag time (h) [6] [h] |
| --- | --- | --- | --- | --- | --- | --- | --- | --- | --- | --- | --- | --- | --- | --- | --- | --- | --- | --- | --- | --- |
| CC[C@H](C)[C@H](NC(=O)[C@@H]1CCCN1C(=O)CNC(=O)[C@H](Cc1ccccc1)NC(=O)[C@H](CC(N)=O)NC(=O)[C@H](CC(N)=O)NC(=O)[C@H](CO)NC(=O)[C@H](CO)NC(=O)[C@H](CCCNC(=N)N)NC(=O)[C@H](Cc1c[nH]cn1)NC(=O)[C@H](CC(C)C)NC(=O)[C@H](Cc1ccccc1)NC(=O)[C@H](CCC(=O)O)NC(=O)[C@H](C)NC(=O)[C@H](CC(C)C)NC(=O)[C@H](CCCNC(=N)N)NC(=O)[C@H](CCC(N)=O)NC(=O)[C@@H](NC(=O)[C@H](C)NC(=O)[C@@H]1CSSC[C@H](NC(=O)CC[C@H](NC(=O)CCCCCCCCCCCCCCCCCCC(=O)O)C(=O)O)C(=O)NCC(=O)N[C@@H]([C@@H](C)O)C(=O)N[C@@H](C)C(=O)N[C@@H]([C@@H](C)O)C(=O)N1)[C@@H](C)O)C(=O)N[C@@H](CC(C)C)C(=O)N1CCC[C@H]1C(=O)N1CCC[C@H]1C(=O)N[C@H](C(=O)N[C@@H](CCC(=O)O)C(=O)N[C@H](C(=O)NCC(=O)N[C@@H](CO)C(=O)NCC(=O)N[C@H](C(=O)N[C@@H](Cc1ccc(O)cc1)C(N)=O)[C@@H](C)O)C(C)C)[C@@H](C)O [Example 3, N-alpha-[(S)-4-Carboxy-4-(19-carboxynonadecanoylamino)butyryl]-[des1,Gly3,Glu14,His17,Arg18,Glu31,Gly35]-pramlintide] ({C20 diacid-γGlu}-CGTATCATQRLAEFLHRSSNNFGPILPPTEVGSGTY-NH2; disulfide 1-6 (inferred)) | 37 | 32 | 0.164 | 0.222 | > 200 | > 200 | > 200 | > 200 | > 200 | > 200 | > 200 | > 200 | > 200 | 68 (≈ 289 µg/mL) | – | – | – | – | – | – |
| CC(C)C[C@H](NC(=O)[C@H](CCCNC(=N)N)NC(=O)[C@H](CCC(N)=O)NC(=O)[C@@H](NC(=O)[C@H](C)NC(=O)[C@@H]1CSSC[C@H](NC(=O)[C@H](CCC(=O)O)NC(=O)CC[C@H](NC(=O)CCCCCCCCCCCCCCCCCCC(=O)O)C(=O)O)C(=O)NCC(=O)N[C@@H]([C@@H](C)O)C(=O)N[C@@H](C)C(=O)N[C@@H]([C@@H](C)O)C(=O)N1)[C@@H](C)O)C(=O)N[C@@H](C)C(=O)N[C@@H](CCC(=O)O)C(=O)N[C@@H](Cc1ccccc1)C(=O)N[C@@H](CC(C)C)C(=O)N[C@H](C(=O)N[C@@H](CCCNC(=N)N)C(=O)N[C@@H](CO)C(=O)N[C@@H](CO)C(=O)N[C@@H](CO)C(=O)N[C@@H](CO)C(=O)N[C@@H](Cc1ccccc1)C(=O)NCC(=O)N[C@@H](C)C(=O)N1CCC[C@H]1C(=O)N[C@@H](CC(C)C)C(=O)N[C@@H](CO)C(=O)N[C@@H](CO)C(=O)N[C@H](C(=O)N[C@@H](CCC(=O)O)C(=O)N[C@H](C(=O)NCC(=O)N[C@@H](CO)C(=O)N[C@@H](CCCNC(=N)N)C(=O)N[C@H](C(=O)N[C@@H](Cc1ccc(O)cc1)C(N)=O)[C@@H](C)O)C(C)C)[C@@H](C)O)C(C)C [Example 24, N-alpha-[(S)-4-Carboxy-4-(19-carboxynonadecanoylamino)butyryl]-[Glu1,Gly3,Glu14,Arg18,Ser21,Ser22,Ala25,Pro26,Ser28,Ser29,Glu31,Arg35]-pramlintide] ({C20 diacid-γGlu}-ECGTATCATQRLAEFLVRSSSSFGAPLSSTEVGSRTY-NH2; disulfide 2-7 (inferred); C-terminus assumed) | – | – | – | 0.672 | – | – | – | – | – | – | – | – | – | – | 1.44 | 4.51 | 1.75 | – | – | – |
| CC[C@H](C)[C@H](NC(=O)[C@@H]1CCCN1C(=O)CNC(=O)[C@H](Cc1ccccc1)NC(=O)[C@H](CC(N)=O)NC(=O)[C@H](CC(N)=O)NC(=O)[C@H](CO)NC(=O)[C@H](CO)NC(=O)[C@H](Cc1c[nH]cn1)NC(=O)[C@H](Cc1c[nH]cn1)NC(=O)[C@H](CC(C)C)NC(=O)[C@H](Cc1ccccc1)NC(=O)[C@H](CCC(=O)O)NC(=O)[C@H](C)NC(=O)[C@H](CC(C)C)NC(=O)[C@H](CCCNC(=N)N)NC(=O)[C@H](CCC(N)=O)NC(=O)[C@@H](NC(=O)[C@H](C)NC(=O)[C@@H]1CSSC[C@H](NC(=O)[C@H](Cc2c[nH]cn2)NC(=O)[C@H](Cc2c[nH]cn2)NC(=O)[C@H](Cc2c[nH]cn2)NC(=O)CC[C@H](NC(=O)CCCCCCCCCCCCCCCCCCC(=O)O)C(=O)O)C(=O)N[C@@H](CC(N)=O)C(=O)N[C@@H]([C@@H](C)O)C(=O)N[C@@H](C)C(=O)N[C@@H]([C@@H](C)O)C(=O)N1)[C@@H](C)O)C(=O)N[C@@H](CC(C)C)C(=O)N1CCC[C@H]1C(=O)N1CCC[C@H]1C(=O)N[C@H](C(=O)N[C@@H](CC(N)=O)C(=O)N[C@H](C(=O)NCC(=O)N[C@@H](CO)C(=O)N[C@@H](CC(N)=O)C(=O)N[C@H](C(=O)N[C@@H](Cc1ccc(O)cc1)C(N)=O)[C@@H](C)O)C(C)C)[C@@H](C)O [Example 11, N-alpha-[(S)-4-Carboxy-4-(19-carboxynonadecanoylamino)butyryl]-His-His-[His1,Glu14,His17]-pramlintide] ({C20 diacid-γGlu}-HHHCNTATCATQRLAEFLHHSSNNFGPILPPTNVGSNTY-NH2; disulfide 4-9 (inferred)) | – | – | – | – | – | – | – | – | – | – | – | – | – | – | – | – | – | 87 | 92 | 7.4 |
